Legend:
[1] = Stability of PAC esters in aqueous media at pH 7.4 and 37° C.; format: physicochemical; conditions: read-out: T½ (apparent half-life in aqueous media) (converted)
[2] = system: MCF7 human breast cancer cell; assay: Inhibition of MCF7 human breast cancer cell growth (non-MDR cell line); format: cell-based; conditions: read-out: Potency (dose that inhibits MCF7 human breast cancer cell growth by 50%)
[3] = system: MDR over non-MDR human breast cancer cell lines; assay: MDR liability: growth inhibition in MDR over non-MDR human breast cancer cell lines; format: cell-based

## CC(=O)O[C@H]1C(=O)[C@@]2(C)[C@H]([C@H](OC(=O)c3ccccc3)[C@]3(O)C[C@H](OC(=O)[C@H](O)[C@@H](NC(=O)c4ccccc4)c4ccccc4)C(C)=C1C3(C)C)[C@]1(OC(C)=O)CO[C@@H]1C[C@@H]2O [PAC, Paclitaxel]
[1]
  half-life: 11.6 days
[2]
  IC50: 6.9 nM
[3]
  MDR liability: about 1000 fold
[3]; MDR over non-MDR human breast cancer cell lines
  MDR Liability (ratio of doses inhibiting growth by 50% in MDR over non-MDR human breast cancer cell lines): 1041
